This note sets out measurements from patent publication US9296741B2, “Bromodomain inhibitors” (priority 2012, dated 2016).

Broadly, the Ki is a measure of affinity in units of concentration, obtained from inhibition or displacement.

Series [1] is described as follows: Rat liver microsome stability assay. In kind it is in vitro ADME. The following applies: rat liver microsomes (male Sprague-Dawley), 0.5 μM test compound, pH 7.4, 37° C.; for Stability in rat liver microsomes (t1/2 in minutes): […] microsomal protein; for half-life at 0.5 μM: 0.25 mg/mL microsomal protein, read-out: Stability in rat liver microsomes (t1/2 in minutes).

Series [2] relates to breast cancer cell line MX-1. Nature of the series: MX-1 cell line proliferation assay. In kind it is cell-based, human. The conditions noted are these: Homo sapiens, MX1, 72 h; MX-1 cells, 3-day proliferation, Cell Titer Glo; read-out: Cellular proliferation: EC50. (In general: In ATP-based viability assays light output follows the ATP content of the culture.)
Series [3] in a line: Human liver microsome stability assay. In kind it is in vitro ADME. The conditions noted are these: both sexes, human, microsomes, pH 7.4. On the technique in general: Liver microsomes are a subcellular fraction often used to study metabolism.
Series [4] addresses human BRD4 second bromodomain (BDII_E352-M457) (Homo sapiens (Human), UniProt O60885). Nature of the series: TR-FRET bromodomain binding assay, BRD4 second bromodomain. Background: Time-resolved FRET reads energy transfer from a long-lived donor to a nearby acceptor.
In series [5] the target is human BRD4 first bromodomain (BDI_K57-E168) (Homo sapiens (Human), UniProt O60885). Nature of the series: TR-FRET bromodomain binding assay, BRD4 first bromodomain.

For the molecule `Cn1cc(-c2ccccc2Oc2ccccc2)c2cc[nH]c2c1=O` [Example 1, 6-methyl-4-(2-phenoxyphenyl)-1,6-dihydro-7H-pyrrolo[2,3-c]pyridin-7-one], the “Stability in rat liver microsomes (t1/2 in minutes)” value in series [1] is 1 min. In series [2], the EC50 stood at 137 nM. In series [3], the half-life at 0.5 μM amounted to 9 min. Besides, the Ki amounted to 41 nM in series [4] and 136 nM in series [5].

As to `CCOc1ccc(S(C)(=O)=O)cc1-c1cn(C)c(=O)c2[nH]ccc12` [Example 259, 4-[2-ethoxy-5-(methylsulfonyl)phenyl]-6-methyl-1,6-dihydro-7H-pyrrolo[2,3-c]pyridin-7-one], the half-life at 0.5 μM stood at 87 min in series [1] and 117 min in series [3]. In addition, the EC50 in series [2] was 123 nM. The Ki in series [4] was determined as 20.3 nM; in series [5], 24.2 nM.

As for `CC1CCC(Oc2ccc(S(C)(=O)=O)cc2-c2cn(C)c(=O)c3[nH]ccc23)CC1` (centres unmarked) [Example 233, 6-methyl-4-{2-[(4-methylcyclohexyl)oxy]-5-(methylsulfonyl)phenyl}-1,6-dihydro-7H-pyrrolo[2,3-c]pyridin-7-one], the EC50 in series [2] came to 6.9 nM. The results for the Ki in series [4] and in series [5] were 1.5 nM and 2.2 nM, respectively.

Turning to `Cn1cc(-c2cc(S(C)(=O)=O)ccc2Oc2ccc(F)cc2F)c2cc(COc3cccnc3)[nH]c2c1=O` [Example 289, 4-[2-(2,4-difluorophenoxy)-5-(methylsulfonyl)phenyl]-6-methyl-2-[(pyridin-3-yloxy)methyl]-1,6-dihydro-7H-pyrrolo[2,3-c]pyridin-7-one], the EC50 in series [2] is above 3000 nM. Besides, the figures for the Ki in series [4] and in series [5] were 310 nM and 12.4 nM, respectively.

As for `CCS(=O)(=O)N(CC1CC1)c1ccc(Oc2ccc(F)cc2F)c(-c2cn(C)c(=O)c3[nH]ccc23)c1` [Example 343, N-(cyclopropylmethyl)-N-[4-(2,4-difluorophenoxy)-3-(6-methyl-7-oxo-6,7-dihydro-1H-pyrrolo[2,3-c]pyridin-4-yl)phenyl]ethanesulfonamide], the half-life at 0.5 μM came out at 7 min in series [1] and 2 min in series [3]. Moreover, the EC50 in series [2] came out at 224 nM. Moreover, the Ki in series [4] worked out at 4.8 nM; in series [5], 42.7 nM.

For the molecule `Cn1cc(-c2ccccc2Oc2ccccc2)c2cc(-c3ccccc3)[nH]c2c1=O` [Example 88, 6-methyl-4-(2-phenoxyphenyl)-2-phenyl-1,6-dihydro-7H-pyrrolo[2,3-c]pyridin-7-one], the half-life at 0.5 μM in series [1] stood at 12 min; in series [3], 23 min. Moreover, the EC50 in series [2] is above 3000 nM. Besides, the results for the Ki in series [4] and in series [5] were 236 nM and 635 nM, respectively.

With `Cn1cc(-c2cc(S(C)(=O)=O)ccc2OCC2CCC2)c2cc[nH]c2c1=O` [Example 234, 4-[2-(cyclobutylmethoxy)-5-(methylsulfonyl)phenyl]-6-methyl-1,6-dihydro-7H-pyrrolo[2,3-c]pyridin-7-one], the EC50 in series [2] is 15.9 nM. Also, the Ki in series [4] is 3.4 nM; in series [5] it was 3 nM.

As for `Cn1cc(-c2cc([N+](=O)[O-])ccc2Oc2ccccc2)c2cc[nH]c2c1=O` [Example 2, 6-methyl-4-(5-nitro-2-phenoxyphenyl)-1,6-dihydro-7H-pyrrolo[2,3-c]pyridin-7-one], the EC50 in series [2] turned out to be 860 nM. The Ki in series [4] stood at 178 nM; in series [5], 529 nM.

Turning to `CCS(=O)(=O)Nc1ccc(OCc2cc(C)nn2C)c(-c2cn(C)c(=O)c3[nH]ccc23)c1` [Example 143, N-{4-[(1,3-dimethyl-1H-pyrazol-5-yl)methoxy]-3-(6-methyl-7-oxo-6,7-dihydro-1H-pyrrolo[2,3-c]pyridin-4-yl)phenyl}ethanesulfonamide], the EC50 in series [2] stood at 370 nM. Moreover, the Ki in series [4] was 107 nM; in series [5] it was 22.3 nM.

On to `Cn1cc(-c2cc(NS(C)(=O)=O)ccc2Oc2ccccc2C#N)c2cc[nH]c2c1=O` [Example 25, N-[4-(2-cyanophenoxy)-3-(6-methyl-7-oxo-6,7-dihydro-1H-pyrrolo[2,3-c]pyridin-4-yl)phenyl]methanesulfonamide], for which, in series [2], the EC50 was found to be 56.2 nM. In addition, the Ki in series [4] was 3.6 nM; in series [5], 3 nM.

Turning to `Cn1cc(-c2cc(NS(C)(=O)=O)ccc2Oc2ccccc2)c2cc(CO)[nH]c2c1=O` [Example 89, N-{3-[2-(hydroxymethyl)-6-methyl-7-oxo-6,7-dihydro-1H-pyrrolo[2,3-c]pyridin-4-yl]-4-phenoxyphenyl}methanesulfonamide], in series [2], the EC50 came to 25.2 nM. Moreover, the Ki in series [4] was 2.1 nM; in series [5], 1.6 nM.

For the molecule `CCOC(=O)c1ccc(Oc2ccccc2)c(-c2cn(C)c(=O)c3[nH]ccc23)c1` [Example 9, ethyl 3-(6-methyl-7-oxo-6,7-dihydro-1H-pyrrolo[2,3-c]pyridin-4-yl)-4-phenoxybenzoate], the “Stability in rat liver microsomes (t1/2 in minutes)” value in series [1] was 1 min. Besides, the EC50 in series [2] came to 113 nM.

With `Cn1cc(-c2cc(S(C)(=O)=O)ccc2OC2CCCC2)c2cc[nH]c2c1=O` [Example 216, 4-[2-(cyclopentyloxy)-5-(methylsulfonyl)phenyl]-6-methyl-1,6-dihydro-7H-pyrrolo[2,3-c]pyridin-7-one], in series [2], the EC50 amounted to 6.6 nM. The Ki in series [4] and in series [5] was 1.8 nM throughout.

As to `CNS(=O)(=O)c1ccc(NCC2CC2)c(-c2cn(C)c(=O)c3[nH]ccc23)c1` [Example 239, 4-[(cyclopropylmethyl)amino]-N-methyl-3-(6-methyl-7-oxo-6,7-dihydro-1H-pyrrolo[2,3-c]pyridin-4-yl)benzenesulfonamide], in series [2], the EC50 came out at 10.1 nM. In addition, the figures for the Ki in series [4] and in series [5] were 2.4 nM and 2.8 nM, respectively.

On to `Cn1cc(-c2cc(S(C)(=O)=O)ccc2Oc2cccc(Cl)c2F)c2cc[nH]c2c1=O` [Example 184, 4-[2-(3-chloro-2-fluorophenoxy)-5-(methylsulfonyl)phenyl]-6-methyl-1,6-dihydro-7H-pyrrolo[2,3-c]pyridin-7-one], for which the EC50 in series [2] was 78.8 nM.

With `CCS(=O)(=O)N(CCN1CCCC1=O)c1ccc(Oc2ccc(F)cc2F)c(-c2cn(C)c(=O)c3[nH]ccc23)c1` [Example 344, N-[4-(2,4-difluorophenoxy)-3-(6-methyl-7-oxo-6,7-dihydro-1H-pyrrolo[2,3-c]pyridin-4-yl)phenyl]-N-[2-(2-oxopyrrolidin-1-yl)ethyl]ethanesulfonamide], the EC50 in series [2] stood at 636 nM. The Ki in series [4] is 136 nM; in series [5], 430 nM.

Turning to `CN1CCC(NC(=O)c2ccc(Oc3ccc(F)cc3F)c(-c3cn(C)c(=O)c4[nH]ccc34)c2)C1=O` (centres unmarked) [Example 53, 4-(2,4-difluorophenoxy)-3-(6-methyl-7-oxo-6,7-dihydro-1H-pyrrolo[2,3-c]pyridin-4-yl)-N-(1-methyl-2-oxopyrrolidin-3-yl)benzamide], in series [2], the EC50 is 76.5 nM. For the same molecule, the Ki in series [4] worked out at 5.4 nM; in series [5], 62.2 nM.

Take `Cn1cc(-c2cc(S(C)(=O)=O)ccc2OCCC2CC2)c2cc[nH]c2c1=O` [Example 219, 4-[2-(2-cyclopropylethoxy)-5-(methylsulfonyl)phenyl]-6-methyl-1,6-dihydro-7H-pyrrolo[2,3-c]pyridin-7-one]: the EC50 in series [2] amounted to 17.7 nM. For the same molecule, the Ki is 2.9 nM in series [4] and 3.6 nM in series [5].

On to `Cn1cc(-c2cc(NS(=O)(=O)CCF)ccc2Oc2ccc(C#N)cc2)c2cc[nH]c2c1=O` [Example 113, N-[4-(4-cyanophenoxy)-3-(6-methyl-7-oxo-6,7-dihydro-1H-pyrrolo[2,3-c]pyridin-4-yl)phenyl]-2-fluoroethanesulfonamide], for which, in series [2], the EC50 is above 3000 nM. Besides, the Ki in series [4] was found to be 381 nM; in series [5] it was 47.4 nM.

Regarding `CCS(=O)(=O)Nc1ccc(Oc2ccc(C#N)cc2)c(-c2cn(C)c(=O)c3[nH]ccc23)c1` [Example 90, N-[4-(4-cyanophenoxy)-3-(6-methyl-7-oxo-6,7-dihydro-1H-pyrrolo[2,3-c]pyridin-4-yl)phenyl]ethanesulfonamide], the EC50 in series [2] turned out to be 16.8 nM. Besides, the Ki in series [4] was 6.8 nM; in series [5], 4 nM.

As for `CCNC(=O)c1cc2c(-c3cc(NS(C)(=O)=O)ccc3Oc3ccccc3)nn(C)c(=O)c2[nH]1` [Example 81, N-ethyl-6-methyl-4-{5-[(methylsulfonyl)amino]-2-phenoxyphenyl}-7-oxo-6,7-dihydro-1H-pyrrolo[2,3-d]pyridazine-2-carboxamide], the EC50 in series [2] came out at 103 nM. The Ki in series [4] came out at 0.99 nM; in series [5], 9.5 nM.

`COC(=O)c1cc2c(-c3ccccc3Oc3ccccc3)cn(C)c(=O)c2n1C` [Example 68, methyl 1,6-dimethyl-7-oxo-4-(2-phenoxyphenyl)-6,7-dihydro-1H-pyrrolo[2,3-c]pyridine-2-carboxylate]: the EC50 in series [2] worked out at 5900 nM. Besides, the Ki in series [4] worked out at 2550 nM; in series [5] it was 1700 nM.

Consider `CCOC(=O)c1cc2c(-c3cc(N(CC)S(C)(=O)=O)ccc3Oc3ccccc3)nn(C)c(=O)c2[nH]1` [Example 76, ethyl 4-{5-[ethyl(methylsulfonyl)amino]-2-phenoxyphenyl}-6-methyl-7-oxo-6,7-dihydro-1H-pyrrolo[2,3-d]pyridazine-2-carboxylate], for which, in series [2], the EC50 is 290 nM. In addition, the Ki in series [4] came out at 29.7 nM; in series [5], 65.8 nM.

On to `CCS(=O)(=O)N(CCOC)c1ccc(Oc2ccc(F)cc2F)c(-c2cn(C)c(=O)c3[nH]ccc23)c1` [Example 341, N-[4-(2,4-difluorophenoxy)-3-(6-methyl-7-oxo-6,7-dihydro-1H-pyrrolo[2,3-c]pyridin-4-yl)phenyl]-N-(2-methoxyethyl)ethanesulfonamide], for which, in series [2], the EC50 is 622 nM. The Ki in series [4] was determined as 81.7 nM; in series [5], 295 nM.
